Experimental data from PubChem BioAssay (NCI).
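The compound was tested at five concentrations on cells cultured in 96-well plates, with a 48-hour exposure period. Definition used: TGI = concentration required for complete inhibition of growth.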

Tests used:
Experiment in all cases: NCI tumour cell line growth inhibition, 48 h
786-0 renal = tested on: 786-0 renal
A498 renal = tested on: A498 renal
A549 NSCLC = tested on: A549 NSCLC
ACHN renal = tested on: ACHN renal
BT-549 breast = tested on: BT-549 breast
CAKI-1 renal = tested on: CAKI-1 renal
CCRF-CEM leukemia = tested on: CCRF-CEM leukemia
COLO 205 colon = tested on: COLO 205 colon
DU-145 prostate = tested on: DU-145 prostate
EKVX NSCLC = tested on: EKVX NSCLC
HCT-116 colon = tested on: HCT-116 colon
HCT-15 colon = tested on: HCT-15 colon
HL-60(TB) leukemia = tested on: HL-60(TB) leukemia
HOP-62 NSCLC = tested on: HOP-62 NSCLC
HOP-92 NSCLC = tested on: HOP-92 NSCLC
HS 578T breast = tested on: HS 578T breast
HT29 colon = tested on: HT29 colon
IGROV1 ovarian = tested on: IGROV1 ovarian
K-562 leukemia = tested on: K-562 leukemia
KM12 colon = tested on: KM12 colon
LOX IMVI melanoma = tested on: LOX IMVI melanoma
M14 melanoma = tested on: M14 melanoma
MALME-3M melanoma = tested on: MALME-3M melanoma
MCF7 breast = tested on: MCF7 breast
MDA-MB-231 breast = tested on: MDA-MB-231 breast
MDA-MB-435 = tested on: MDA-MB-435
MDA-N = tested on: MDA-N
MOLT-4 leukemia = tested on: MOLT-4 leukemia
NCI-H226 lung = tested on: NCI-H226 lung
NCI-H23 lung = tested on: NCI-H23 lung
NCI-H460 lung = tested on: NCI-H460 lung
NCI-H522 lung = tested on: NCI-H522 lung
NCI/ADR-RES ovarian = tested on: NCI/ADR-RES ovarian
OVCAR-3 ovarian = tested on: OVCAR-3 ovarian
OVCAR-4 ovarian = tested on: OVCAR-4 ovarian
OVCAR-5 ovarian = tested on: OVCAR-5 ovarian
OVCAR-8 ovarian = tested on: OVCAR-8 ovarian
PC-3 prostate = tested on: PC-3 prostate
RPMI-8226 leukemia = tested on: RPMI-8226 leukemia
RXF 393 renal = tested on: RXF 393 renal
SF-268 CNS = tested on: SF-268 CNS
SF-295 CNS = tested on: SF-295 CNS
SF-539 CNS = tested on: SF-539 CNS
SK-MEL-2 melanoma = tested on: SK-MEL-2 melanoma
SK-MEL-28 melanoma = tested on: SK-MEL-28 melanoma
SK-MEL-5 melanoma = tested on: SK-MEL-5 melanoma
SK-OV-3 ovarian = tested on: SK-OV-3 ovarian
SN12C renal = tested on: SN12C renal
SNB-19 CNS = tested on: SNB-19 CNS
SNB-75 CNS = tested on: SNB-75 CNS
SR leukemia = tested on: SR leukemia
SW-620 colon = tested on: SW-620 colon
T-47D breast = tested on: T-47D breast
TK-10 renal = tested on: TK-10 renal
U251 CNS = tested on: U251 CNS
UACC-257 melanoma = tested on: UACC-257 melanoma
UACC-62 melanoma = tested on: UACC-62 melanoma
UO-31 renal = tested on: UO-31 renal

Measured: TGI

COc1ccc2cc(C(=O)CCC(=O)O)ccc2c1
> 100 µM: all assays above

NCCNS(=O)(=O)c1ccc(N)cc1
41.5 µM: HL-60(TB) leukemia
not listed: NCI-H460 lung
> 100 µM: all other assays above

COc1cc2c3c(c1O)-c1c(ccc(OC)c1OC)CC3N(C)CC2 (centres undefined)
not listed: HOP-62 NSCLC | K-562 leukemia | MALME-3M melanoma | SK-MEL-28 melanoma
> 100 µM: all other assays above
